Measurements from PubChem BioAssay AID248 (DTP/NCI, 2004).
Toxic doses and inconclusive results are not listed. Rule as the data show it: active = T/C of 150% or more; inactive = T/C below 125%.

System: L1210 leukemia ip in BDF1 mice, survival T/C
Test: NCI In Vivo Anticancer Drug Screen. Data for tumor model L1210 Leukemia (intraperitoneal) in B6D2F1 (BDF1) mice
Conditions: endpoint: mean survival time, higher = longer survival
Method in brief: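 Survival endpoint. Drug-treated group vs vehicle group, expressed as T divided by C. Tumor passaged by transplantation.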

[1] = dose: 100.0 mg/kg/injection, schedule: Q01DX001 (ip), vehicle: carboxymethylcellulose (CMC)
[2] = dose: 200.0 mg/kg/injection, schedule: Q01DX001 (ip), vehicle: carboxymethylcellulose (CMC)
[3] = dose: 400.0 mg/kg/injection, schedule: Q01DX001 (ip), vehicle: carboxymethylcellulose (CMC)
[4] = dose: 75.0 mg/kg/injection, schedule: Q01DX001 (ip), vehicle: saline
[5] = dose: 100.0 mg/kg/injection, schedule: Q01DX009 (ip), vehicle: saline
[6] = dose: 100.0 mg/kg/injection, schedule: Q04DX003 (ip), vehicle: saline
[7] = dose: 200.0 mg/kg/injection, schedule: Q04DX003 (ip), vehicle: saline
[8] = dose: 400.0 mg/kg/injection, schedule: Q04DX003 (ip), vehicle: saline
[9] = dose: 100.0 mg/kg/injection, schedule: Q01DX009 (ip), vehicle: saline with Tween-80
[10] = dose: 200.0 mg/kg/injection, schedule: Q01DX009 (ip), vehicle: saline with Tween-80
[11] = dose: 400.0 mg/kg/injection, schedule: Q01DX009 (ip), vehicle: saline with Tween-80
[12] = dose: 100.0 mg/kg/injection, schedule: Q01DX005 (ip), vehicle: saline
[13] = dose: 200.0 mg/kg/injection, schedule: Q01DX005 (ip), vehicle: saline
[14] = dose: 100.0 mg/kg/injection, schedule: Q01DX009 (ip), vehicle: Klucel (hydroxypropylcellulose) (HPC)
[15] = dose: 200.0 mg/kg/injection, schedule: Q01DX009 (ip), vehicle: Klucel (hydroxypropylcellulose) (HPC)
[16] = dose: 400.0 mg/kg/injection, schedule: Q01DX009 (ip), vehicle: Klucel (hydroxypropylcellulose) (HPC)
[17] = dose: 100.0 mg/kg/injection, schedule: Q04DX003 (ip), vehicle: saline with Tween-80
[18] = dose: 200.0 mg/kg/injection, schedule: Q04DX003 (ip), vehicle: saline with Tween-80
[19] = dose: 400.0 mg/kg/injection, schedule: Q04DX003 (ip), vehicle: saline with Tween-80
[20] = dose: 100.0 mg/kg/injection, schedule: Q04DX002 (ip), vehicle: Klucel (hydroxypropylcellulose) (HPC)
[21] = dose: 200.0 mg/kg/injection, schedule: Q04DX002 (ip), vehicle: Klucel (hydroxypropylcellulose) (HPC)
[22] = dose: 100.0 mg/kg/injection, schedule: Q01DX001 (ip), vehicle: saline
[23] = dose: 200.0 mg/kg/injection, schedule: Q01DX001 (ip), vehicle: saline
[24] = dose: 400.0 mg/kg/injection, schedule: Q01DX001 (ip), vehicle: saline
[25] = dose: 100.0 mg/kg/injection, schedule: Q01DX001 (ip), vehicle: Klucel (hydroxypropylcellulose) (HPC)
[26] = dose: 200.0 mg/kg/injection, schedule: Q01DX001 (ip), vehicle: Klucel (hydroxypropylcellulose) (HPC)
[27] = dose: 400.0 mg/kg/injection, schedule: Q01DX001 (ip), vehicle: Klucel (hydroxypropylcellulose) (HPC)
[28] = dose: 50.0 mg/kg/injection, schedule: Q01DX001 (ip), vehicle: saline

Measured: T/C

O=C1NC(Cc2ccc(O)cc2)C(=O)N1c1ccccc1O (stereo unspecified)
inactive: [1] 96 % of control | [2] 96 % of control | [3] 94 % of control

O/N=c1\ncn(O)c2nc[nH]c12
inactive: [4] 93 % of control | dose: 150.0 mg/kg/injection, schedule: Q01DX001 (ip), vehicle: saline 103 % of control | dose: 300.0 mg/kg/injection, schedule: Q01DX001 (ip), vehicle: saline 93 % of control | dose: 300.0 mg/kg/injection, schedule: Q01DX009 (ip), vehicle: saline 123 % of control

NC(N)=NC(N)=Nc1ccc([As](=O)(O)O)c(O)c1
inactive: dose: 25.0 mg/kg/injection, schedule: Q01DX009 (ip), vehicle: saline 101 % of control | dose: 40.0 mg/kg/injection, schedule: Q01DX009 (ip), vehicle: Klucel (hydroxypropylcellulose) (HPC) 108 % of control | dose: 50.0 mg/kg/injection, schedule: Q01DX009 (ip), vehicle: saline 98 % of control | dose: 80.0 mg/kg/injection, schedule: Q01DX009 (ip), vehicle: Klucel (hydroxypropylcellulose) (HPC) 101 % of control | [5] 108 % of control | dose: 160.0 mg/kg/injection, schedule: Q01DX009 (ip), vehicle: Klucel (hydroxypropylcellulose) (HPC) 104 % of control

Cc1cc(NS(=O)(=O)c2ccc(N)cc2)sn1
inactive: [6] 87 % of control | [7] 92 % of control | [8] 97 % of control

O=[N+]([O-])c1ccc(C(SCc2ccccc2)SCc2ccccc2)cc1
inactive: dose: 75.0 mg/kg/injection, schedule: Q01DX001 (ip), vehicle: carboxymethylcellulose (CMC) 97 % of control | dose: 150.0 mg/kg/injection, schedule: Q01DX001 (ip), vehicle: carboxymethylcellulose (CMC) 100 % of control | dose: 300.0 mg/kg/injection, schedule: Q01DX001 (ip), vehicle: carboxymethylcellulose (CMC) 97 % of control

CC(C)(CO)NC(=O)CC1CCCCC1
inactive: [9] 96 % of control | [10] 97 % of control | [11] 97 % of control

CC1(C)OC2COC(c3[nH]nc(C(N)=O)c3C(=O)NN)C2O1 (stereo unspecified)
inactive: [12] 103 % of control | [13] 97 % of control

CCCCCCCCCC(=O)N/N=C/c1cccs1
inactive: [14] 101 % of control | [15] 101 % of control | [16] 89 % of control

O[C@@H]1CCCC[C@@H]1n1cnc2c(=S)nc[nH]c21
inactive: [9] 97 % of control | [17] 98 % of control | [10] 93 % of control | [18] 93 % of control | [11] 92 % of control | [19] 91 % of control

CN(C)NCC(O)COc1ccc(Cl)cc1 (stereo unspecified)
inactive: [20] 103 % of control | [21] 100 % of control

COc1ccc(-c2c([N+](=O)[O-])ccc(Cl)c2[N+](=O)[O-])cc1
inactive: dose: 50.0 mg/kg/injection, schedule: Q01DX001 (ip), vehicle: carboxymethylcellulose (CMC) 94 % of control | [1] 117 % of control | [2] 107 % of control | [3] 102 % of control

C=C(Br)CNC(=O)NCCN1CCOCC1
inactive: [17] 97 % of control | [18] 111 % of control | [19] 97 % of control

C[S+](C)CCCN
inactive: [22] 105 % of control | [5] 94 % of control | [6] 103 % of control | [23] 110 % of control | dose: 200.0 mg/kg/injection, schedule: Q01DX009 (ip), vehicle: saline 109 % of control | [7] 106 % of control | [24] 105 % of control | dose: 400.0 mg/kg/injection, schedule: Q01DX009 (ip), vehicle: saline 106 % of control | [8] 98 % of control

Sc1c(Cl)c(Cl)c(Cl)c(Cl)c1Cl
inactive: [25] 106 % of control | [14] 93 % of control | [26] 106 % of control | [15] 100 % of control | [27] 104 % of control | [16] 93 % of control

C=CCC1(/C(=C\CC)CCC)C(=O)NC(=O)NC1=O
inactive: [4] 96 % of control

Cc1nnc(N)nc1C
inactive: [20] 95 % of control | [21] 103 % of control | dose: 400.0 mg/kg/injection, schedule: Q04DX002 (ip), vehicle: Klucel (hydroxypropylcellulose) (HPC) 95 % of control

CC1(C)N=C(N)N=C(N)N1c1ccc(OCCNC(=O)c2ccc(S(=O)(=O)F)cc2)c(Cl)c1
inactive: dose: 18.75 mg/kg/injection, schedule: Q04DX003 (ip), vehicle: saline with Tween-80 103 % of control | dose: 37.5 mg/kg/injection, schedule: Q04DX003 (ip), vehicle: saline with Tween-80 108 % of control | dose: 75.0 mg/kg/injection, schedule: Q04DX003 (ip), vehicle: saline with Tween-80 104 % of control

COC(=O)/C=C/Sc1ccccc1C(=O)OC
inactive: dose: 50.0 mg/kg/injection, schedule: Q04DX003 (ip), vehicle: other 104 % of control | dose: 100.0 mg/kg/injection, schedule: Q04DX003 (ip), vehicle: other 87 % of control | dose: 200.0 mg/kg/injection, schedule: Q04DX003 (ip), vehicle: other 95 % of control

CC(SC(C)C(=O)NN)C(=O)NN (stereo unspecified)
inactive: [28] 102 % of control | [22] 107 % of control | [23] 105 % of control | dose: 200.0 mg/kg/injection, schedule: Q01DX Z (ip), vehicle: carboxymethylcellulose (CMC) 94 % of control | dose: 296.0 mg/kg/injection, schedule: Q01DX Z (ip), vehicle: methylcellulose (MC) 98 % of control | dose: 370.0 mg/kg/injection, schedule: Q01DX Z (ip), vehicle: methylcellulose (MC) 104 % of control | [24] 100 % of control | dose: 400.0 mg/kg/injection, schedule: Q01DX Z (ip), vehicle: carboxymethylcellulose (CMC) 97 % of control | dose: 555.0 mg/kg/injection, schedule: Q01DX Z (ip), vehicle: methylcellulose (MC) 110 % of control | dose: 800.0 mg/kg/injection, schedule: Q01DX Z (ip), vehicle: carboxymethylcellulose (CMC) 111 % of control | dose: 833.0 mg/kg/injection, schedule: Q01DX Z (ip), vehicle: methylcellulose (MC) 119 % of control

O=C1OC2C(O)C(CO)OC2n2c1cc(=O)[nH]c2=O (stereo unspecified)
inactive: [12] 111 % of control | [13] 104 % of control

O=C(O)C(Br)C(Br)C(=O)O.[Ag] (stereo unspecified)
inactive: dose: 9.38 mg/kg/injection, schedule: Q01DX001 (ip), vehicle: other 94 % of control | dose: 18.75 mg/kg/injection, schedule: Q01DX001 (ip), vehicle: other 94 % of control

Cc1cc(C)c(C[N+](C)(C)C)c(C)c1
inactive: [28] 108 % of control | [22] 104 % of control

CC1C/C(=N/NC(=O)OC(C)(C)C)CC(C)(C)C1 (stereo unspecified)
inactive: dose: 100.0 mg/kg/injection, schedule: Q01DX009 (ip), vehicle: gum acacia 96 % of control | dose: 200.0 mg/kg/injection, schedule: Q01DX009 (ip), vehicle: gum acacia 89 % of control | dose: 400.0 mg/kg/injection, schedule: Q01DX009 (ip), vehicle: gum acacia 87 % of control

COC1OC(COC(c2ccccc2)(c2ccccc2)c2ccccc2)C(O)C(O)C1NC(C)=O (stereo unspecified)
inactive: [25] 96 % of control | [26] 96 % of control | [27] 101 % of control

CC1(C)N=C(N)N=C(N)N1c1cccc(OCCCOc2ccccc2)c1
inactive: [26] 102 % of control

COC1OC2COc3ccccc3OC2C(NC(N)=O)C1O (stereo unspecified)
inactive: [9] 97 % of control | [10] 100 % of control | [11] 91 % of control

c1ccc(CNc2cnccn2)cc1
inactive: [22] 105 % of control | [23] 105 % of control
